Values of other authors as cited in patent publication US20130316010A1, “POLYMERIC MICROPARTICLES” (Case Western Reserve University, priority 2010, published 2013).

Test system: EGFR
Conditions: rodent glaucomatous optic neuropathy model and optic nerve crush model

Substance: AG1478
- EGFR upregulation and activation of astrocytes: reverses this upregulation and activation of astrocytes
- survival of RGCs: increases the survival of RGCs
